According to US20150289795A1, “METHODS AND KITS FOR THE PROGNOSIS OF COLORECTAL CANCER” (INSTITUCIÓ CATALANA DE RECERCA I ESTUDIS AVANÇATS, priority 2012, published 2015):

Legend:
[1] = system: colon cancer stem cells derived from a stage IV patient; assay: liver metastasis after intrasplenic inoculation of CoCSCs, bioluminescence; type: in vivo, NSG mice
Description: (§1) A. Kaplan Meier curves show tumour free survival over time for mice injected subcutaneously with colon cancer stem cells derived from a stage IV patient, treated or not with a TGF beta inhibitor (LY2157299). Mice received LY2157299 or vehicle from three days prior to inoculation until sacrifice (n=12) B. Bioluminescence over time after intrasplenic inoculation of 5×10^5 colon cancer stem cells derived from a stage IV patient in NSG mice treated as in A. Intensities were normalized to day 0 and arbitrarily set to 100. Values are mean±SEM (*: p<0.05).
(§2) All experiments with mouse models were approved by the animal care and use committee of the Barcelona Science Park (CEEA-PCB) and the Catalan Government. Cells were injected subcutaneously in 5 to 6 weeks old Swiss nude or NSG mice, (Jackson Labs), which were followed for the periods described. Tumour appearance was assessed by palpation. […]
Mice were anaesthetized, injected retro-orbitally with D-luciferin (Promega) and imaged for luciferase activity as previously described (Minn et al., 2005; J Clin Invest 115, 44-55). Luciferase activity measured immediately after cell injection was used to exclude any mice that were not successfully xenografted and to normalize bioluminescence. […]

[2] = system: colon cancer stem cells derived from a stage IV patient; assay: subcutaneous tumour formation by primary CoCSC-derived cells in mice; type: in vivo; conditions: 2 mg twice a day per os, from three days prior to inoculation until sacrifice; FIG. 12A
Description: as §1
as §2, with “palpation. Five to six weeks old Balb/c nude or NSG mice (Jackson Labs) were used to perform metastasis experiments by intra-splenic injection (Warren et al., 1995, J. Clin. Invest. 95, 1789-1797)” for “palpation.”

[3] = system: CoCSC-derived culture (TGFBR2-mutant tumour organoids of a Stage IV CRC patient); assay: in vitro growth of CoCSC-derived tumour organoid culture; type: cell-based, human; conditions: both TGFBR2 alleles inactivated, data not shown
Description: The purification of Colon Cancer CoCSCs from CRC biopsies is described elsewhere (Merlos-Suarez et al., 2011, Cell Stem Cell 8, 511-524). We isolated CoCSCs from the primary tumour of a Stage IV CRC patient and cultured them as epithelial tumour organoids as described in (Jung et al., 2011; Nat Med 17, 1225-1227; Sato et al., 2011; Gastroenterology 141, 1762-1772). […] When injected in immunodeficient mice, they generated tumours with abundant p-SMAD2+ stromal cells, implying that this primary CoCSCs elicited a TGF-beta response in the tumour microenvironment (data not shown).

[4] = system: TGF-beta signalling (p-SMAD2); assay: TGF-beta signalling and target gene mRNA in pre-established xenografts; type: in vivo, mice; conditions: tenfold higher dosed treatment for 3 days
Description: The TGF-beta receptor I kinase antagonist, LY2157299, developed by Eli Lilly (Beight, 2004, Eli Lilly and Co. PCT Int. Appl. In PCT Int. Appl. WO2004048382A1; Bueno et al., 2008; Eur J Cancer 44, 142-150) was synthesized following the procedure described (Mundla, 2007; Eli Lilly and Company. PCT Int. Appl. WO2007018818A1. In, (USA)). TGF-beta receptor type I inhibitor LY2157299 was suspended in a formulation (vehicle) composed of 1% sodium carboxy methylcellulose (NaCMC), 0.4% sodium lauryl sulfate (SLS), 0.05% anti-foam and 0.085% polyvinylpyrrolidone (PVP) in a concentration of 6.67 mg mL^−1. Mice were dosed twice a day with 2 mg in 300 μL (2 mg) per os. starting 3 days before CRC cell lines inoculation. A tenfold higher dosed treatment for 3 days was used to show TGF-beta signalling (p-SMAD2) and target gene mRNA downregulation in pre-established xenografts.

## Cc1cccc(-c2nn3c(c2-c2ccnc4ccc(C(N)=O)cc24)CCC3)n1 [LY2157299, 2-(6-methyl-pyridin-2-yl)-3-[6-amido-quinolin-4-yl)-5,6-dihydro-4H-pyrrolo[1,2-b]pyrazole]
[1]; kinetics of metastatic colonization, FIG. 12B inset
  number of cells that engrafted the liver immediately after inoculation: reduced the number of cells that engrafted the liver
[1]; same regime, 5×10^5 cells intrasplenic, NSG mice, FIG. 12B
  formation of liver metastasis by CoCSCs inoculated via the spleen: reduced formation of liver metastasis
[2]
  formation of subcutaneous tumours (tumour free survival): conferred resistance to the formation of subcutaneous tumours
[3]
  in vitro growth rates, morphology or organoid forming activity: did not modify
[4]
  TGF-beta signalling (p-SMAD2) and target gene mRNA: downregulation

## active TGF-beta: active TGF-beta added to the CoCSC-derived culture
[3]
  in vitro growth rates, morphology or organoid forming activity: did not modify
